Test results taken from paper PMC5218480 (PLoS ONE, 2017).

Tested on: MV-4-11 cells
Assay: Gene expression microarray analysis (Affymetrix PrimeView) and GSEA
Format: cell-based, human
Design: RFU PODN (11730768_x_at) / Fold change /veh PODN (11730768_x_at) / RFU LINC00158 (11744669_a_at) / Fold change /veh LINC00158 (11744669_a_at) / RFU DUSP10 (11751237_a_at) / Fold change /veh DUSP10 (11751237_a_at) / RFU ID3 (11757404_x_at) / Fold change /veh ID3 (11757404_x_at) / RFU PLEKHG5 (11737974_s_at) / Fold change /veh PLEKHG5 (11737974_s_at) / RFU LRRC4B (11730491_at) / Fold change /veh LRRC4B (11730491_at) / RFU GIMAP4 (11747438_a_at) / Fold change /veh GIMAP4 (11747438_a_at) / RFU KRT8 (11758183_x_at) / Fold change /veh KRT8 (11758183_x_at) / RFU CNN1 (11734310_a_at) / Fold change /veh CNN1 (11734310_a_at) / RFU VPS37D (11726825_at) / Fold change /veh VPS37D (11726825_at) / RFU C10orf10 (11716522_x_at) / Fold change /veh C10orf10 (11716522_x_at) / RFU KIR2DL2 /// KIR2DL4 /// KIR2DL5A /// KIR2DL5B /// KIR2DS1 /// KIR2DS2 /// KIR2DS3 /// KIR2DS4 /// KIR3DL3 /// KIR3DL3 /// KIR3DS1 (11738374_at) / Fold change /veh KIR2DL2 /// KIR2DL4 /// KIR2DL5A /// KIR2DL5B /// KIR2DS1 /// KIR2DS2 /// KIR2DS3 /// KIR2DS4 /// KIR3DL3 /// KIR3DL3 /// KIR3DS1 (11738374_at) / RFU C1QL1 (11718748_at) / Fold change /veh C1QL1 (11718748_at) / RFU TMPRSS4 (11747572_a_at) / Fold change /veh TMPRSS4 (11747572_a_at) / RFU HAMP (11756126_x_at) / Fold change /veh HAMP (11756126_x_at) / RFU RNFT2 (11725882_a_at) / Fold change /veh RNFT2 (11725882_a_at) / RFU NR4A2 (11747474_a_at) / Fold change /veh NR4A2 (11747474_a_at) / RFU ABCC12 (11746883_a_at) / Fold change /veh ABCC12 (11746883_a_at) / RFU TMEM136 (11760407_x_at) / Fold change /veh TMEM136 (11760407_x_at) / RFU CLDN22 /// WWC2 (11732394_at) / Fold change /veh CLDN22 /// WWC2 (11732394_at) / RFU HLA-DPB1 (11760878_x_at) / Fold change /veh HLA-DPB1 (11760878_x_at) / RFU SPINT1 (11716480_a_at) / Fold change /veh SPINT1 (11716480_a_at) / RFU GAP43 (11754022_s_at) / Fold change /veh GAP43 (11754022_s_at) / RFU A4GNT (11735810_at) / Fold change /veh A4GNT (11735810_at) / RFU PRB3 (11715151_x_at) / Fold change /veh PRB3 (11715151_x_at) / RFU TUBB4B (11761932_at) / Fold change /veh TUBB4B (11761932_at) / RFU CAPN14 (11732068_a_at) / Fold change /veh CAPN14 (11732068_a_at) / RFU TMCC2 (11721928_a_at) / Fold change /veh TMCC2 (11721928_a_at) / RFU IRGQ (11745062_a_at) / Fold change /veh IRGQ (11745062_a_at) / RFU FAM174B (11720279_a_at) / Fold change /veh FAM174B (11720279_a_at) / RFU TMPRSS4 (11748680_a_at) / Fold change /veh TMPRSS4 (11748680_a_at) / RFU FAM212B (11763350_a_at) / Fold change /veh FAM212B (11763350_a_at) / RFU PLEKHG5 (11743358_a_at) / Fold change /veh PLEKHG5 (11743358_a_at) / RFU ZSCAN30 (11745921_a_at) / Fold change /veh ZSCAN30 (11745921_a_at) / RFU CMKLR1 (11741424_a_at) / Fold change /veh CMKLR1 (11741424_a_at) / RFU LOC101060620 /// MAPK8IP1 (11723275_at) / Fold change /veh LOC101060620 /// MAPK8IP1 (11723275_at) / RFU SPTSSB (11747773_x_at) / Fold change /veh SPTSSB (11747773_x_at) / RFU PRSS12 (11739890_at) / Fold change /veh PRSS12 (11739890_at) / RFU BIN1 (11741810_x_at) / Fold change /veh BIN1 (11741810_x_at) / RFU WNT11 (11732464_a_at) / Fold change /veh WNT11 (11732464_a_at) / RFU C10orf10 (11716521_a_at) / Fold change /veh C10orf10 (11716521_a_at) / RFU C5orf56 (11738089_at) / Fold change /veh C5orf56 (11738089_at) / RFU CYB561 (11721691_x_at) / Fold change /veh CYB561 (11721691_x_at) / RFU ANKRD19P (11752326_a_at) / Fold change /veh ANKRD19P (11752326_a_at) / RFU OR2T12 /// OR2T33 /// OR2T8 (11738714_s_at) / Fold change /veh OR2T12 /// OR2T33 /// OR2T8 (11738714_s_at) / RFU VCAN (11748164_a_at) / Fold change /veh VCAN (11748164_a_at) / RFU JSRP1 (11732532_at) / Fold change /veh JSRP1 (11732532_at) / RFU KRTAP10-11 (11738290_x_at) / Fold change /veh KRTAP10-11 (11738290_x_at) / RFU MYO3A (11730013_a_at) / Fold change /veh MYO3A (11730013_a_at) / RFU EBF3 (11725865_a_at) / Fold change /veh EBF3 (11725865_a_at) / RFU CAMK2N1 (11719241_x_at) / Fold change /veh CAMK2N1 (11719241_x_at) / RFU C5orf56 (11738088_a_at) / Fold change /veh C5orf56 (11738088_a_at) / RFU OLFML3 (11715873_a_at) / Fold change /veh OLFML3 (11715873_a_at) / RFU LOC100653217 /// NTM (11731650_a_at) / Fold change /veh LOC100653217 /// NTM (11731650_a_at) / RFU MAPK11 (11762145_a_at) / Fold change /veh MAPK11 (11762145_a_at) / RFU FIZ1 (11724087_x_at) / Fold change /veh FIZ1 (11724087_x_at) / RFU OASL (11726364_x_at) / Fold change /veh OASL (11726364_x_at) / RFU SOX15 (11748057_x_at) / Fold change /veh SOX15 (11748057_x_at) / RFU CD79A (11719716_a_at) / Fold change /veh CD79A (11719716_a_at) / RFU HIST1H1D (11736915_at) / Fold change /veh HIST1H1D (11736915_at) / RFU CASKIN2 (11723855_a_at) / Fold change /veh CASKIN2 (11723855_a_at) / RFU LOC730098 (11760151_x_at) / Fold change /veh LOC730098 (11760151_x_at) / RFU OR4N2 (11742367_at) / Fold change /veh OR4N2 (11742367_at) / RFU PRRT2 (11749266_a_at) / Fold change /veh PRRT2 (11749266_a_at) / RFU SNX32 (11753110_a_at) / Fold change /veh SNX32 (11753110_a_at) / RFU CDHR5 (11726645_a_at) / Fold change /veh CDHR5 (11726645_a_at) / RFU RCAN1 (11760418_a_at) / Fold change /veh RCAN1 (11760418_a_at) / RFU FAM167A (11723789_a_at) / Fold change /veh FAM167A (11723789_a_at) / RFU FAM26E (11764081_at) / Fold change /veh FAM26E (11764081_at) / RFU ISYNA1 (11749810_s_at) / Fold change /veh ISYNA1 (11749810_s_at) / RFU ACY1 (11761880_at) / Fold change /veh ACY1 (11761880_at) / RFU 11764098_at / Fold change /veh 11764098_at / RFU SAMD14 (11745864_x_at) / Fold change /veh SAMD14 (11745864_x_at) / RFU NPB (11741838_a_at) / Fold change /veh NPB (11741838_a_at) / RFU TMPRSS6 (11731388_a_at) / Fold change /veh TMPRSS6 (11731388_a_at) / RFU KRTAP10-2 (11738614_at) / Fold change /veh KRTAP10-2 (11738614_at) / RFU ARHGAP8 /// PRR5-ARHGAP8 (11727945_x_at) / Fold change /veh ARHGAP8 /// PRR5-ARHGAP8 (11727945_x_at) / RFU KRTAP5-7 /// NADSYN1 (11734609_at) / Fold change /veh KRTAP5-7 /// NADSYN1 (11734609_at) / RFU RASL12 (11751679_a_at) / Fold change /veh RASL12 (11751679_a_at) / RFU CDKN2B (11736163_a_at) / Fold change /veh CDKN2B (11736163_a_at) / RFU PRF1 (11729649_at) / Fold change /veh PRF1 (11729649_at) / RFU, ZNF638 /// ZNF638-IT1 / Fold change vs veh, ZNF638 /// ZNF638-IT1 / RFU, PANK3 / Fold change vs veh, PANK3 / RFU, SH3YL1 / Fold change vs veh, SH3YL1 / RFU, ZEB2 / Fold change vs veh, ZEB2 / RFU, NRIP1 / Fold change vs veh, NRIP1 / RFU, PTTG1IP / Fold change vs veh, PTTG1IP / RFU, CAPN2 / Fold change vs veh, CAPN2 / RFU, MED14 / Fold change vs veh, MED14 / RFU, SNORA58 / Fold change vs veh, SNORA58 / RFU, C1orf63 / Fold change vs veh, C1orf63 / RFU, LRRFIP1 / Fold change vs veh, LRRFIP1 / RFU, NDUFAF7 / Fold change vs veh, NDUFAF7 / RFU, SLC12A2 / Fold change vs veh, SLC12A2 / RFU, IBTK / Fold change vs veh, IBTK / RFU, ESF1 / Fold change vs veh, ESF1 / Fold change vs veh, TMEM50B / RFU, TAOK1 / Fold change vs veh, TAOK1 / RFU, ACBD3 / Fold change vs veh, ACBD3 / RFU, TMA16 / Fold change vs veh, TMA16 / RFU, RWDD3 / Fold change vs veh, RWDD3 / RFU, BCAT1 / Fold change vs veh, BCAT1 / RFU, EDEM3 / Fold change vs veh, EDEM3 / RFU, TMEM33 / Fold change vs veh, TMEM33 / RFU, WDR75 / Fold change vs veh, WDR75 / RFU, AHCTF1 / Fold change vs veh, AHCTF1 / RFU, TFRC / Fold change vs veh, TFRC / RFU, ZDHHC17 / Fold change vs veh, ZDHHC17 / RFU, NOM1 / Fold change vs veh, NOM1 / RFU, ARL8B / Fold change vs veh, ARL8B / RFU, ZBTB11 / Fold change vs veh, ZBTB11 / RFU, TAMM41 / Fold change vs veh, TAMM41 / RFU, KIAA1704 /// LOC100996395 / Fold change vs veh, KIAA1704 /// LOC100996395 / RFU, ING1 / Fold change vs veh, ING1 / RFU, TRMT61B / Fold change vs veh, TRMT61B / RFU, FUBP3 / Fold change vs veh, FUBP3 / RFU, TP53 / Fold change vs veh, TP53 / RFU, TNKS2 / Fold change vs veh, TNKS2 / RFU, ZFP14 / Fold change vs veh, ZFP14 / RFU, ACTR2 / Fold change vs veh, ACTR2 / RFU, PPP3R1 / Fold change vs veh, PPP3R1 / RFU, PIK3R1 / Fold change vs veh, PIK3R1 / RFU, HNRNPA1 / Fold change vs veh, HNRNPA1 / RFU, RNF170 / Fold change vs veh, RNF170 / RFU, ZNF28 / Fold change vs veh, ZNF28 / RFU, RNGTT / Fold change vs veh, RNGTT / RFU, OGT / Fold change vs veh, OGT / RFU, BRD1 / Fold change vs veh, BRD1 / RFU, MARS / Fold change vs veh, MARS / RFU, ZNF655 / Fold change vs veh, ZNF655 / RFU, FAHD1 / Fold change vs veh, FAHD1 / RFU, BDP1 / Fold change vs veh, BDP1 / RFU, LRRCC1 / Fold change vs veh, LRRCC1 / RFU, ARID1A / Fold change vs veh, ARID1A / RFU, ZNF146 / Fold change vs veh, ZNF146 / RFU, ZNF330 / Fold change vs veh, ZNF330 / RFU, GPN3 / Fold change vs veh, GPN3 / RFU, C9orf123 / Fold change vs veh, C9orf123 / RFU, N4BP2L2 / Fold change vs veh, N4BP2L2 / RFU, ARFIP1 / Fold change vs veh, ARFIP1 / RFU, FAM179B / Fold change vs veh, FAM179B / RFU, BCL10 / Fold change vs veh, BCL10 / RFU, UHRF1BP1L / Fold change vs veh, UHRF1BP1L / RFU, BET1 / Fold change vs veh, BET1 / RFU, CNOT2 / Fold change vs veh, CNOT2 / RFU, ZNF268 / Fold change vs veh, ZNF268 / Fold change vs veh, ZNF507 / RFU, DGCR2 / Fold change vs veh, DGCR2 / RFU, WDSUB1 / Fold change vs veh, WDSUB1 / Fold change vs veh, HSP90B1 /// MIR3652 / RFU, ADSS / Fold change vs veh, ADSS / RFU, GK / Fold change vs veh, GK / RFU, ZNF148 / Fold change vs veh, ZNF148 / RFU, TAF9 / Fold change vs veh, TAF9 / RFU, SLC1A5 / Fold change vs veh, SLC1A5 / RFU, SLMO2 / Fold change vs veh, SLMO2 / RFU, ABCC4 / Fold change vs veh, ABCC4 / RFU, LOC101060439 /// RAP1B / Fold change vs veh, LOC101060439 /// RAP1B / RFU, RFX7 / Fold change vs veh, RFX7 / RFU, GTPBP10 / Fold change vs veh, GTPBP10 / RFU, CNEP1R1 / Fold change vs veh, CNEP1R1 / RFU, BIVM-ERCC5 /// ERCC5 / Fold change vs veh, BIVM-ERCC5 /// ERCC5 / RFU, ILF3 / Fold change vs veh, ILF3 / RFU 11762660_at / Fold change /veh 11762660_at / RFU VCAN (11757783_s_at) / Fold change /veh VCAN (11757783_s_at) / RFU DDX43 (11728927_at) / Fold change /veh DDX43 (11728927_at) / RFU KRT8 (11758188_x_at) / Fold change /veh KRT8 (11758188_x_at) / RFU NKD1 (11759106_at) / Fold change /veh NKD1 (11759106_at) / RFU SRD5A1 (11742802_a_at) / Fold change /veh SRD5A1 (11742802_a_at) / RFU TPSAB1 /// TPSB2 (11721975_s_at) / Fold change /veh TPSAB1 /// TPSB2 (11721975_s_at) / RFU GSTM3 (11746129_a_at) / Fold change /veh GSTM3 (11746129_a_at) / RFU IL23R (11737362_x_at) / Fold change /veh IL23R (11737362_x_at) / RFU TMEM51 (11727254_a_at) / Fold change /veh TMEM51 (11727254_a_at) / RFU PIWIL2 (11732686_x_at) / Fold change /veh PIWIL2 (11732686_x_at) / RFU ORM1 (11744905_x_at) / Fold change /veh ORM1 (11744905_x_at) / RFU CCDC152 (11743942_at) / Fold change /veh CCDC152 (11743942_at) / RFU ECM1 (11717891_a_at) / Fold change /veh ECM1 (11717891_a_at) / RFU IL23R (11748794_a_at) / Fold change /veh IL23R (11748794_a_at) / RFU TNFAIP8L3 (11732012_x_at) / Fold change /veh TNFAIP8L3 (11732012_x_at) / RFU MBOAT4 (11741988_at) / Fold change /veh MBOAT4 (11741988_at) / RFU 11764193_at / Fold change /veh 11764193_at / RFU TMEM53 (11763286_at) / Fold change /veh TMEM53 (11763286_at) / RFU MAGEB2 (11727129_at) / Fold change /veh MAGEB2 (11727129_at) / RFU TMEM200A (11744735_a_at) / Fold change /veh TMEM200A (11744735_a_at) / RFU CCDC152 (11751479_a_at) / Fold change /veh CCDC152 (11751479_a_at) / RFU FAM211A (11726209_a_at) / Fold change /veh FAM211A (11726209_a_at) / RFU RGS16 (11746705_a_at) / Fold change /veh RGS16 (11746705_a_at) / RFU VCAN (11755009_s_at) / Fold change /veh VCAN (11755009_s_at) / RFU RHOB (11743442_s_at) / Fold change /veh RHOB (11743442_s_at) / RFU RGS16 (11720943_a_at) / Fold change /veh RGS16 (11720943_a_at) / RFU RGS16 (11720944_at) / Fold change /veh RGS16 (11720944_at) / RFU, VPS4B / Fold change vs veh, VPS4B / RFU, CREB1 / Fold change vs veh, CREB1 / RFU, DNAJC13 / Fold change vs veh, DNAJC13 / RFU, GNAQ / Fold change vs veh, GNAQ / RFU, CDK5R1 / Fold change vs veh, CDK5R1 / RFU, ZRANB3 / Fold change vs veh, ZRANB3 / RFU, CUL4A / Fold change vs veh, CUL4A / RFU, CCNY / Fold change vs veh, CCNY / RFU, UFL1 / Fold change vs veh, UFL1 / RFU, COG3 / Fold change vs veh, COG3 / RFU, DIAPH2 / Fold change vs veh, DIAPH2 / RFU, SKA2 / Fold change vs veh, SKA2 / RFU, AFF3 / Fold change vs veh, AFF3 / RFU, LMF1 / Fold change vs veh, LMF1 / RFU, IPO11 / Fold change vs veh, IPO11 / RFU, DFFB / Fold change vs veh, DFFB / RFU, FOXP1 / Fold change vs veh, FOXP1 / RFU, CARD8 / Fold change vs veh, CARD8 / RFU, STRN3 / Fold change vs veh, STRN3 / RFU, ADK / Fold change vs veh, ADK / RFU, RASSF2 / Fold change vs veh, RASSF2 / RFU, WIPF1 / Fold change vs veh, WIPF1 / RFU, LARP1B / Fold change vs veh, LARP1B / RFU, RASA1 / Fold change vs veh, RASA1 / RFU, RB1 / Fold change vs veh, RB1 / RFU, PPFIA1 / Fold change vs veh, PPFIA1 / RFU, MAT2A / Fold change vs veh, MAT2A / RFU, CCT5 / Fold change vs veh, CCT5 / RFU, WDR92 / Fold change vs veh, WDR92 / RFU, CUX1 / Fold change vs veh, CUX1 / RFU, TTC7A / Fold change vs veh, TTC7A / RFU, TMEM135 / Fold change vs veh, TMEM135 / RFU, DEPTOR / Fold change vs veh, DEPTOR / RFU, CPM / Fold change vs veh, CPM / RFU, DNAJB6 / Fold change vs veh, DNAJB6 / RFU, CACNA2D3 / Fold change vs veh, CACNA2D3 / RFU, DTX4 / Fold change vs veh, DTX4 / RFU, TFCP2 / Fold change vs veh, TFCP2 / RFU, GMCL1 /// GMCL1P1 / Fold change vs veh, GMCL1 /// GMCL1P1 / RFU, AEBP2 / Fold change vs veh, AEBP2 / RFU, SNHG1 /// SNORD22 /// SNORD25 /// SNORD26 /// SNORD27 /// SNORD28 /// SNORD29 /// SNORD31 / Fold change vs veh, SNHG1 /// SNORD22 /// SNORD25 /// SNORD26 /// SNORD27 /// SNORD28 /// SNORD29 /// SNORD31 / Fold change (Aza/veh), C12orf56 (ProbeSet 11735607_a_at) / Fold change (ACY-1035/veh), C12orf56 (ProbeSet 11735607_a_at) / Fold change (Aza/veh), FGFR1OP (ProbeSet 11751329_s_at) / Fold change (ACY-1035/veh), FGFR1OP (ProbeSet 11751329_s_at) / Fold change (Aza/veh), VPS36 (ProbeSet 11739960_a_at) / Fold change (ACY-1035/veh), VPS36 (ProbeSet 11739960_a_at) / RFU SYPL1 (11715823_x_at) / Fold change /veh SYPL1 (11715823_x_at) / RFU IGFBP7 (11715501_s_at) / Fold change /veh IGFBP7 (11715501_s_at) / RFU REEP3 (11722064_at) / Fold change /veh REEP3 (11722064_at) / RFU IGLL1 (11728026_x_at) / Fold change /veh IGLL1 (11728026_x_at): dose or concentration left out as unconfirmed
Details: ProbeSet 11743580_s_at; LIST B

SMILES: Nc1ncn([C@@H]2O[C@H](CO)[C@@H](O)[C@H]2O)c(=O)n1 [azacitidine]
- Fold change vs veh, ACTR2: 0.91
